Patent US7312031B1, “Alpha-complementation viral fusion assay” (The Salk Institute for Biological Studies, priority 2002, dated 2007)

Columns and labels:
[1] = tested on: fusion of 293T.CD4.Ω/CCR5 with 293T/ADA; experiment: alpha-complementation fusion assay, 293T.CD4.Ω/CCR5 with 293T/ADA; format: cell-based, human; details: FIG. 7-9, ADA Env (CCR5-specific)
Description: FIG. 7 depicts the fusion of 293T.CD4.Ω/CCR5 with 293T/ADA in the presence of TAK-779.
293T (ATCC cat #CRL-1573) or HeLa (ATCC cat #CCL-2) cells (2.5×10^6) were seeded in 10 cm plates 24 hours prior to transfection. The next morning, cells were transfected with 21 μg of DNA, 7 μg pSCTZ-alpha-N85, 7 μg pRSV-Rev (Hope et al., Proc. Nat'l. Acad. Sci. U.S.A. 87: 7787-91 (1990)) and 7 μg of envelope expression vector (pSV-ADA, pSV-JRFL (Deng et al., Nature 381: 661-666 (1996)), or pCAGGS-SF33 (York-Higgins et al., J. Virol. 64: 4016-4020 (1990)). […]
Remove the plates from the water bath, spin 4000 rpm (Eppendorf tabletop centrifuge) for 1 minute to firmly pellet cells, aspirate medium, and add 100 μl of Galacto-Star lysis buffer (Perkin-Elmer). […] After 60 minutes, read β-gal activity in plates in a Packard TopCount luminometer for 15 s/well. […]
Two days later, remove the transfected cells from plates by incubating with phosphate-buffered saline containing 5 mM EDTA. The cells are then counted on hemocytometer. […]
After four hours, read β-gal activity as in Example 1.

[2] = tested on: fusion of 293T.CD4.Ω with 293T/SF33; experiment: alpha-complementation fusion assay, 293T.CD4.Ω with 293T/SF33; format: cell-based, human; details: FIG. 5 and 6; SF33 Env (CXCR4-specific); 293T.CD4.Ω stable line
Description: Remove the plates from the water bath, spin 4000 rpm (Eppendorf tabletop centrifuge) for 1 minute to firmly pellet cells, aspirate medium, and add 100 μl of Galacto-Star lysis buffer (Perkin-Elmer). Mix well and incubate at room temperature for 5 minutes. Spin lysates 5 minutes at 4000 rpm and transfer 10 μl to a black 96-well plate (Costar). Add 100 μl of Galacto-Star substrate using a multi-channel pipettor. After 60 minutes, read β-gal activity in plates in a Packard TopCount luminometer for 15 s/well.
Transfect 293 cells with expression vector for HIV envelope protein, B-gal-α and HIV-1 Rev. Vectors used express CCR5-specific Envs (JFRL, ADA) or CXCR4-specific Envs (SF33 or JC2) driven by the cytomegalovirus promoter. Transfect the cells by lipofection or calcium phosphate standard methods.
Harvest 293-CD4.CCR5.omega cells with PBS/EDTA and count.
Prepare a microtiter plate by adding 2.5×10^5 293-CD4.CCR5.omega cells to each well with a multi-channel pipettor or robot in a volume of 50 μl of medium. Add inhibitors at different concentrations to each of the wells, in duplicate. […]

SMILES: Cc1ccc(-c2ccc3c(c2)C=C(C(=O)Nc2ccc(C[N+](C)(C)C4CCOCC4)cc2)CCC3)cc1.[Cl-] [TAK-779]
- inhibition of fusion reaction [1]: inhibits the fusion reaction in a concentration-dependent manner

SMILES: c1cc(CN2CCCNCCNCCCNCC2)ccc1CN1CCCNCCNCCCNCC1 [AMD3100]
- inhibition of fusion reaction [2]: inhibits the fusion reaction in a concentration-dependent manner
